Experimental data: patent publication US20050130961A1, “Muscarinic M1 receptor agonists for pain management” (priority 2003, published 2005)
pEC50: −log10 of the molar value. Like-named read-outs stand apart in the source and are kept apart here.

Columns and labels:
M(1) muscarinic receptor = molecular target: T1, M(1) muscarinic receptor (Homo sapiens, UniProt P11229); experiment: R-SAT functional receptor assay, M(1); assay type: cell-based; settings: for EC50: read-out: M1 pEC50 (converted); for Emax: read-out: M1 % efficacy
T1 construct: expressed in transfected cells
T1 sequence (P11229 1-460): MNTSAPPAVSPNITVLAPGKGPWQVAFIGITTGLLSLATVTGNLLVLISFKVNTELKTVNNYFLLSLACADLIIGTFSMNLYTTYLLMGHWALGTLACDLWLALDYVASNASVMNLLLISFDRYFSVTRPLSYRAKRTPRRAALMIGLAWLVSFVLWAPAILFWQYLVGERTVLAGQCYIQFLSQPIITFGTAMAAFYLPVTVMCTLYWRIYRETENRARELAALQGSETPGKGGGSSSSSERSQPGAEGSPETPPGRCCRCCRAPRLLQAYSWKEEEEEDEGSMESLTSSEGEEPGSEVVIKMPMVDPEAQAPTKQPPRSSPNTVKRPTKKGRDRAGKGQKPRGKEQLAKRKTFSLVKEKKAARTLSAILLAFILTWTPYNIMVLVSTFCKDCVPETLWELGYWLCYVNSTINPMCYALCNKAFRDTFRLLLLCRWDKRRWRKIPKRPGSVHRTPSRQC
Text: (§1) The functional receptor assay, Receptor Selection and Amplification Technology (R-SAT), essentially as disclosed in U.S. Pat. Nos. 5,707,798, 5,912,132, and 5,955,281, which are all hereby incorporated by reference in their entirety, was used to investigate the pharmacological properties of known and novel muscarinic agonists.

M(2) muscarinic receptor = molecular target: T2, M(2) muscarinic receptor (Homo sapiens, UniProt P08172); experiment: R-SAT functional receptor assay, M(2); assay type: cell-based; settings: for EC50: read-out: M2 pEC50 (converted); for Emax: read-out: M2 % efficacy
T2 construct: expressed in transfected cells
T2 sequence (P08172 1-466): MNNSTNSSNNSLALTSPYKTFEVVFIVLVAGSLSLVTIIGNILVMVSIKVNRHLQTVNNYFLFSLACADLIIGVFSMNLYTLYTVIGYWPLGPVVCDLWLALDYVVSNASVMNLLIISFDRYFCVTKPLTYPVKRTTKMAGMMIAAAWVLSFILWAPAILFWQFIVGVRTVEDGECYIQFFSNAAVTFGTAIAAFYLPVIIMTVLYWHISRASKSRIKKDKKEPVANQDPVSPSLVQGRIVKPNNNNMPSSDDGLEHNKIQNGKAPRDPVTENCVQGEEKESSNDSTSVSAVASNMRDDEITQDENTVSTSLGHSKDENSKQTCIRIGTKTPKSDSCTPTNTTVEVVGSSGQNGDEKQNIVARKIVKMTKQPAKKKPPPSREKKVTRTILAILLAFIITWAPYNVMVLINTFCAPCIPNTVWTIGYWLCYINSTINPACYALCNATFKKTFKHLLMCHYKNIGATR
Text: as §1

thermal hyperalgesia = experiment: CCI/Thermal Hyperalgesia (paw withdrawal latency to radiant heat); assay type: in vivo; settings: CCI rats; for dose that significantly reversed thermal hyperalgesia: post-hoc comparison relative to vehicle
Experimental: (§2) Rats were anesthetized under aseptic and heated conditions using a combination of 1.6 ml ketamine (100 mg/ml) and 1.6 ml xylazine (100 mg/ml) in 6.8 ml 0.9% saline at a volume of 0.1 ml/100 g. The left quadriceps was shaved and scrubbed thoroughly with an iodine solution. The sciatic nerve was exposed at the level of the sciatic notch distally to the sciatic trifurcation. The nerve was very carefully freed from the underlying muscle and connective tissue without causing trauma to the nerve itself. Using 4-0 chromic catgut suture material, four semi-loose ligatures were tied around the sciatic nerve starting at the most proximal level, next to the sciatic notch, spaced roughly 1 mm apart and ending proximal to the sciatic trifurcation. […] The muscular incision was closed with 4-0 silk suture material and the skin was stapled with wound clips. The animals were closely observed until they recovered completely from the anesthetic. The surgery was the same for the hyperalgesia and allodynia experiments.
For hyperalgesia testing, rats were placed in a tinted plastic box on top of a clear glass, temperature-regulated floor maintained at 31±1° C. The floor contained a focal radiant heat source (halogen projection lamp CXL/CXP, 50 W, 8 v, USHIO, Tokyo).
To initiate the test, rats were placed in the tinted boxes and allowed 10-20 minutes to acclimate to the new environment. The radiant heat source was then positioned under the plantar surface of the hind paw. Upon activation of the heat source, a timer was simultaneously triggered. Upon reflex movement of the hind paw, a motion sensor was activated stopping the timer and inactivating the heat source. The thermal source was adjusted so that the average response latency for an uninjured animal was no greater than 20 seconds. Each rat had two days of pre-operative baseline latency measurements in which the left rear hind paw plantar surface was measured three to four times. Two to three left postoperative baseline latency measurements were taken before and after the treatment was given. Postoperative day 2 and 4 measurements yielded the greatest degree of hyperalgesia and thus were utilized in this assay. Each animal was tested twice with at least 48 hours separating each test.
Thermal hyperalgesia developed in the surgical-treated left paw as evidenced by a decrease in paw withdrawal latencies to a thermal stimulus. The maximal hyperalgesia occurred on post-operative days 2 through 4. Paw withdrawal latencies on the surgically-treated left side gradually returned to baseline levels over the course of 5 to 12 days post-surgery.

tactile allodynia = experiment: CCI/Tactile Allodynia (von Frey hairs); assay type: in vivo; settings: CCI rats; for dose that reversed tactile allodynia: i.p., post-hoc comparison
Experimental: as §2
The onset and duration of significant mechanical allodynia post CCI surgery is approximately 10-14 days and lasts for roughly two months. Within this allodynic time frame, and for each specific allodynia experiment, pre and post drug administration measurements were taken with seven von Frey hairs which are designated by log (10* force required to bend hair, mg) and ranged from 2-26 grams (#'s 4.31-5.46). Each hair was pressed perpendicularly against the left injured plantar mid-hind paw surface with sufficient force to cause a slight bending, and was held for 6-8 seconds starting with the thinnest gauged hair and working up to the thickest. A positive response was recorded when the injured paw was sharply withdrawn, and this response was confirmed as positive by testing the next thickest gauged hair for the same response. Only when a response was seen twice was the score accepted. If the maximum gram force of 26 was reached without a response, this was considered the peak threshold cutoff for allodynic behavior and the score was recorded. Animals were considered allodynic when the post surgery baseline measurements were 6 grams and below. Two baseline days of measurements were taken with one round of testing occurring per day. On the day of drug testing, one round of baseline measurements were taken, the appropriate pretreatment was administered i.p. and a second round of measurements were recorded. Each animal was utilized in multiple experiments, with one treatment per experiment, and an appropriate washout period in between experiments.

acute thermal pain = experiment: Acute Thermal Analgesia (tail withdrawal from 55° C. water); assay type: in vivo; settings: rats; for alleviating acute thermal pain, in words / dose active in acute antinociception (tail withdrawal): 55° C. water; for Acute pain, minimal effective dose: NA = not active at the highest tested dose of 30 mg/kg
Experimental: Water was heated and maintained at 55° C.±1° C. with a probe regulated hot plate. Female rats weighing approximately 200 g -250 g were acclimated days in advance by placing them into and removing them from a plastic rat restrainer. On the day of the experiment each rat was placed in the restrainer 1 minute before the test was performed. Roughly one inch of the tail was submerged into the water as a timer was initiated. Once the tail was completely removed from the water, the timer was stopped and the time was recorded. […] One round of baseline measurements were collected. The test compound was administered and after the appropriate pretreatment interval, the procedure was repeated. Each animal was utilized in multiple experiments, with one treatment per experiment, and an appropriate washout period of at least 48 hours between experiments. The pre-treatment baseline tail withdrawal latency average was 2.281 s±0.25. […] At a dose of 10 mg/kg, morphine [F(3,23)=5.903, p<0.01] was antinociceptive.

rats = experiment: Muscarinic Side Effects; settings: of N tested

CCCCC1CCN(CCCc2nsc3ccccc23)CC1 [Formula (VII)]
agonist character at M(1) receptor, in words (M(1) muscarinic receptor; R-SAT): potent and efficacious M(1) agonist
EC50 (M(1) muscarinic receptor; R-SAT): 79.4 nM
Emax (M(1) muscarinic receptor; R-SAT, relative to carbachol): 85%
agonist character at M(2) receptor, in words (M(2) muscarinic receptor; R-SAT): weak partial agonists
EC50 (M(2) muscarinic receptor; R-SAT): 1260 nM
Emax (M(2) muscarinic receptor; R-SAT, relative to carbachol): 36%
Antihyperalgesic, minimal effective dose (thermal hyperalgesia): 10.0 mg/kg
dose that significantly reversed thermal hyperalgesia (thermal hyperalgesia): 10 mg/kg
Antiallodynic, minimal effective dose (tactile allodynia): 10.0 mg/kg
dose that reversed tactile allodynia (tactile allodynia): 10 mg/kg
alleviating acute thermal pain, in words (acute thermal pain): not active

CCCCC1CCN(CCCN2CCOc3ccc(C)cc32)CC1 [Formula (VIII)]
agonist character at M(1) receptor, in words (M(1) muscarinic receptor; R-SAT): potent and efficacious M(1) agonist
EC50 (M(1) muscarinic receptor; R-SAT): 20 nM
Emax (M(1) muscarinic receptor): 81%
agonist character at M(2) receptor, in words (M(2) muscarinic receptor; R-SAT): weak partial agonists
EC50 (M(2) muscarinic receptor; R-SAT): 501 nM
Emax (M(2) muscarinic receptor): 39%
Antihyperalgesic, minimal effective dose (thermal hyperalgesia): 10.0 mg/kg
dose that significantly reversed thermal hyperalgesia (thermal hyperalgesia): 10 mg/kg
Antiallodynic, minimal effective dose (tactile allodynia): 30.0 mg/kg
dose that reversed tactile allodynia (tactile allodynia): 30 mg/kg
alleviating acute thermal pain, in words (acute thermal pain): not active

CO/N=C/C1=CCCN(C)C1 [Milameline]
agonist character at M(1) receptor, in words (M(1) muscarinic receptor; R-SAT): potent and efficacious full agonists
EC50 (M(1) muscarinic receptor; R-SAT): 398 nM
Emax (M(1) muscarinic receptor; R-SAT, relative to carbachol): 90%
agonist character at M(2) receptor, in words (M(2) muscarinic receptor; R-SAT): potent and efficacious full agonists
EC50 (M(2) muscarinic receptor; R-SAT): 631 nM
Emax (M(2) muscarinic receptor; R-SAT, relative to carbachol): 110%
Antihyperalgesic, minimal effective dose (thermal hyperalgesia): 0.3 mg/kg
Antiallodynic, minimal effective dose (tactile allodynia): 0.3 mg/kg
dose active in acute antinociception (tail withdrawal) (acute thermal pain): 1.0 mg/kg
Acute pain, minimal effective dose (acute thermal pain): 1.0 mg/kg

CN1CC[C@]23c4c5ccc(O)c4O[C@H]2[C@@H](O)C=C[C@H]3[C@H]1C5 [Morphine, morphine]
anti-allodynia, in words (tactile allodynia): elicited anti-allodynia
dose active in acute antinociception (tail withdrawal) (acute thermal pain): 10 mg/kg

O=C1CCCN1CC#CCN1CCCC1 [Oxotremorine]
pEC50 (M(1) muscarinic receptor): 7.20
agonist character at M(1) receptor, in words (M(1) muscarinic receptor; R-SAT): potent and efficacious full agonists
Emax (M(1) muscarinic receptor): 91%
pEC50 (M(2) muscarinic receptor): 7.80
agonist character at M(2) receptor, in words (M(2) muscarinic receptor; R-SAT): potent and efficacious full agonists
Emax (M(2) muscarinic receptor): 104%
Antihyperalgesic, minimal effective dose (thermal hyperalgesia): 0.3 mg/kg
paw withdrawal latency (thermal hyperalgesia; dose 1 mg/kg): 18.468 ± 1.532 s
Antiallodynic, minimal effective dose (tactile allodynia): 0.3 mg/kg
Acute pain, minimal effective dose (acute thermal pain): 0.3 mg/kg
Chromodaccyhrea, number of animals exhibiting (rats; 0.1 mg/kg): 0
Diarrhea, number of animals exhibiting (rats; 0.1 mg/kg): 1
Lethargy, number of animals exhibiting (rats; 0.1 mg/kg): 0
Salivation, number of animals exhibiting (rats; 0.1 mg/kg): 0
Tremor, number of animals exhibiting (rats; 0.1 mg/kg): 0
Chromodaccyhrea, number of animals exhibiting (rats; 0.3 mg/kg): 2
Diarrhea, number of animals exhibiting (rats; 0.3 mg/kg): 7
Lethargy, number of animals exhibiting (rats; 0.3 mg/kg): 0
Salivation, number of animals exhibiting (rats; 0.3 mg/kg): 9
Tremor, number of animals exhibiting (rats; 0.3 mg/kg): 0
Chromodaccyhrea, number of animals exhibiting (rats; 1 mg/kg): 8
Diarrhea, number of animals exhibiting (rats; 1 mg/kg): 18
Lethargy, number of animals exhibiting (rats; 1 mg/kg): 18
Salivation, number of animals exhibiting (rats; 1 mg/kg): 16
Tremor, number of animals exhibiting (rats; 1 mg/kg): 6

CCCCCCOc1nsnc1C1=CCCN(C)C1 [Xanomeline]
agonist character at M(2) receptor, in words (M(2) muscarinic receptor; R-SAT): potent and efficacious full agonists
Emax (M(2) muscarinic receptor; R-SAT, relative to carbachol): 109%
Antihyperalgesic, minimal effective dose (thermal hyperalgesia): 10.0 mg/kg
dose that did not reverse thermal hyperalgesia (thermal hyperalgesia; p>0.05 relative to vehicle): 3 mg/kg
dose that significantly reversed thermal hyperalgesia (thermal hyperalgesia): 10 mg/kg
Antiallodynic, minimal effective dose (tactile allodynia): 10.0 mg/kg
dose active in acute antinociception (tail withdrawal) (acute thermal pain): 10.0 mg/kg
Acute pain, minimal effective dose (acute thermal pain): 10.0 mg/kg
